Results on 27 compounds are retold here after patent publication US12187721B2, “Protein tyrosine phosphatase inhibitors” (Array BioPharma Inc., priority 2018, dated 2025).

The term IC50 denotes the midpoint of a concentration-inhibition curve.

For the first test, the target named is T1, full-length SHP2 (His6-tagged SHP2(2-527)) (Homo sapiens, UniProt Q06124).
T1 construct: His6-tagged SHP2(2-527); His6; made in house; host or cells: E. coli
T1 sequence (Q06124 2-527): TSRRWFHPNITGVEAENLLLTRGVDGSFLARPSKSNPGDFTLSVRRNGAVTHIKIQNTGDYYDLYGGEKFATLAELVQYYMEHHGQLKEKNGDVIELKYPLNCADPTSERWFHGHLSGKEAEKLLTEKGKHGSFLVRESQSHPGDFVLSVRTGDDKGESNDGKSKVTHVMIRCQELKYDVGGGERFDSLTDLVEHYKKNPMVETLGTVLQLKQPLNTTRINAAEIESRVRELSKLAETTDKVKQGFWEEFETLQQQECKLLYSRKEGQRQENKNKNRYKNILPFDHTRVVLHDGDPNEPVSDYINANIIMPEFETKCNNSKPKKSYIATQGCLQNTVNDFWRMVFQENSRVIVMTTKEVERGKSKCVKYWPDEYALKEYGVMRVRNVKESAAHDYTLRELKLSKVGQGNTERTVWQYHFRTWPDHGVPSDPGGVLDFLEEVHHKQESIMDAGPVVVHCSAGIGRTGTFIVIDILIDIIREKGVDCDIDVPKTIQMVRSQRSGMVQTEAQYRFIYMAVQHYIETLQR
The experiment in a line: SHP2 Enzymatic Assay (fluorescence intensity kinetic assay, DiFMUP hydrolysis). Format: biochemical.
Conditions: not given
As to the method: A fluorescence intensity kinetic assay was configured for full-length SHP2 that monitors the amount of 6,8-difluoro-7-hydroxy-4-methylcoumarin (“DiFMU”) formed upon hydrolysis of 6,8-difluoro-4-methylumbelliferyl phosphate (“DiFMUP”) by SHP2. Assay mixtures consisted of 25 mM K^+HEPES, pH 7.4, 0.01% Triton X-100, 1 mM DTT, 50 mM KCl, 100 μg/mL bovine γ-globulin, 50 μM DiFMUP, 1 μM SHP2 activating peptide (LN(pY)IDLDLV(dPEG8)LST(pY)ASINFQK-amide), 1 nM full-length SHP2 (His6-tagged SHP2(2-527), recombinantly expressed in E. coli and purified in-house) and 2% dimethylsulfoxide (“DMSO”) (from compound). […] The assay was run in 384-well, polystyrene, low-volume, non-treated, black microtiter plates (Costar 4511) in a final volume of 20 μL. Low control wells lacked enzyme. The assays were initiated by the addition of a mixture of SHP2 and the activating peptide, and following a 15 second mix on an orbital shaker, were read in kinetic mode for 15 minutes (30 seconds/cycle) at ambient temperature on a PerkinElmer EnVision microplate reader (λEx=355 nm, λEm=460 nm). Initial velocities (slopes of the tangents at t=0) were estimated from exponential fits to the slightly nonlinear progress curves and then were converted to percent of control (“POC”) using the following equation:
[formula] • Where: Xmax Average Uninhibited Controls • Xmin Average Background A 4-parameter logistic model was the fit to the POC data for each compound. From that fit, the IC50 was estimated and is defined as the concentration of compound at which the curve crosses 50 POC.
The reported IC50 in Table 1 may be from a single assay or the mean of multiple assays.
With `COc1ccc(F)c(-c2ccc3nc(N4CCC(C)(N)CC4)cnc3n2)c1Cl` [Example 26, 1-(6-(2-chloro-6-fluoro-3-methoxyphenyl)pyrido[2,3-b]pyrazin-2-yl)-4-methylpiperidin-4-amine], the midpoint of inhibition, the IC50, lay at 0.92 µM.

Consider `CC1(CN)CCN(c2cnc3nc(-c4cccc(Cl)c4Cl)ccc3n2)CC1` [Example 27, (1-(6-(2,3-dichlorophenyl)pyrido[2,3-b]pyrazin-2-yl)-4-methylpiperidin-4-yl)methanamine], for which the midpoint of inhibition, the IC50, lay at 0.5 µM.

For `NCC1CCN(c2cnc3nc(-c4cccc(Cl)c4Cl)ccc3n2)C1` (stereo not drawn) [Example 28, (1-(6-(2,3-dichlorophenyl)pyrido[2,3-b]pyrazin-2-yl)pyrrolidin-3-yl)methanamine], half-maximal inhibition (IC50) required 0.83 µM.

`CN(CCN)c1cnc2nc(-c3cccc(Cl)c3Cl)ccc2n1` [Example 29, N1-(6-(2,3-dichlorophenyl)pyrido[2,3-b]pyrazin-2-yl)-N1-methylethane-1,2-diamine] gave an IC50 of 0.32 µM.

For the compound `COc1ccc(-c2ccc3nc(N4CCC(C)(N)CC4)cnc3n2)c(Cl)c1Cl` [Example 30, 1-(6-(2,3-dichloro-4-methoxyphenyl)pyrido[2,3-b]pyrazin-2-yl)-4-methylpiperidin-4-amine], the IC50 was found to be 0.42 µM.

The compound `C[C@@]1(N)CCN(c2cnc3nc(-c4cccc(Cl)c4Cl)ccc3n2)C1` [Example 32, (R)-1-(6-(2,3-dichlorophenyl)pyrido[2,3-b]pyrazin-2-yl)-3-methylpyrrolidin-3-amine] registered an IC50 of 0.42 µM.

Turning to `Cn1ncc2cccc(Sc3ccc4nc(N5CCC(C)(N)CC5)cnc4n3)c21` [Example 34, 4-methyl-1-(6-((1-methyl-1H-indazol-7-yl)thio)pyrido[2,3-b]pyrazin-2-yl)piperidin-4-amine], the IC50 came to 2.6 µM.

As for `COc1cccc(-c2ccc3nc(N4CCC(C)(N)CC4)cnc3n2)c1Cl` [Example 37, 1-(6-(2-chloro-3-methoxyphenyl)pyrido[2,3-b]pyrazin-2-yl)-4-methylpiperidin-4-amine], the midpoint of inhibition, the IC50, lay at 1.1 µM.

As for `C[C@@H]1OCC2(CCN(c3cnc4nc(-c5cccc(Cl)c5Cl)ccc4n3)CC2)[C@@H]1N` [Example 39, (3S,4S)-8-(6-(2,3-dichlorophenyl)pyrido[2,3-b]pyrazin-2-yl)-3-methyl-2-oxa-8-azaspiro[4.5]decan-4-amine], the IC50 worked out at 0.32 µM.

The compound `CC1(N)CCN(c2cnc3nc(Sc4nccn5nccc45)ccc3n2)CC1` [Example 40, 4-methyl-1-(6-(pyrazolo[1,5-a]pyrazin-4-ylthio)pyrido[2,3-b]pyrazin-2-yl)piperidin-4-amine] yielded an IC50 of 0.44 µM.

Take `NCC1(O)CCN(c2cnc3nc(Sc4ccnc(N)c4Cl)ccc3n2)CC1` [Example 42, 1-(6-((2-amino-3-chloropyridin-4-yl)thio)pyrido[2,3-b]pyrazin-2-yl)-4-(aminomethyl)piperidin-4-ol]: half-maximal inhibition (IC50) required 0.095 µM.

With `Nc1nccc(Sc2ccc3nc(N4CCC(N)(CO)CC4)cnc3n2)c1Cl` [Example 43, (4-amino-1-(6-((2-amino-3-chloropyridin-4-yl)thio)pyrido[2,3-b]pyrazin-2-yl)piperidin-4-yl)methanol], the IC50 is 0.1 µM.

The compound `COc1nccc(Sc2ccc3nc(N4CCC(N)(CO)CC4)cnc3n2)c1Cl` [Example 44, (4-amino-1-(6-((3-chloro-2-methoxypyridin-4-yl)thio)pyrido[2,3-b]pyrazin-2-yl)piperidin-4-yl)methanol] showed an IC50 of 0.12 µM.

The compound `NC1(CO)CCN(c2cnc3nc(Sc4ccnc(N5CCCC5)c4Cl)ccc3n2)CC1` [Example 45, (4-amino-1-(6-((3-chloro-2-(pyrrolidin-1-yl)pyridin-4-yl)thio)pyrido[2,3-b]pyrazin-2-yl)piperidin-4-yl)methanol] had an IC50 of 0.092 µM.

`CC1(N)CCN(c2cnc3nc(-c4ccnc(N5CC[C@@H](O)C5)c4Cl)ccc3n2)CC1` [Example 46, (R)-1-(4-(2-(4-amino-4-methylpiperidin-1-yl)pyrido[2,3-b]pyrazin-6-yl)-3-chloropyridin-2-yl)pyrrolidin-3-ol] registered an IC50 of 2.9 µM.

For the compound `CC1(N)CCN(c2cnc3nc(-c4ccnc(NCCO)c4Cl)ccc3n2)CC1` [Example 47, 2-((4-(2-(4-amino-4-methylpiperidin-1-yl)pyrido[2,3-b]pyrazin-6-yl)-3-chloropyridin-2-yl)amino)ethan-1-ol], the IC50 stood at 6 µM.

Compound `CC1(N)CCN(c2cnc3nc(Sc4cccc5ccncc45)ccc3n2)CC1` [Example 48, 1-(6-(isoquinolin-8-ylthio)pyrido[2,3-b]pyrazin-2-yl)-4-methylpiperidin-4-amine] registered an IC50 of 0.46 µM.

Consider `CC1(N)CCN(c2cnc3nc(Sc4ccnc(N5CCCC5)c4Cl)ccc3n2)CC1` [Example 49, 1-(6-((3-chloro-2-(pyrrolidin-1-yl)pyridin-4-yl)thio)pyrido[2,3-b]pyrazin-2-yl)-4-methylpiperidin-4-amine], for which the IC50 was 0.063 µM.

Compound `CC1(N)CCN(c2cnc3nc(-c4cccc5ccncc45)ccc3n2)CC1` [Example 50, 1-(6-(isoquinolin-8-yl)pyrido[2,3-b]pyrazin-2-yl)-4-methylpiperidin-4-amine] showed an IC50 of 9 µM.

Turning to `Nc1nccc(Sc2ccc3nc(N4CCC[C@H](N)CC4)cnc3n2)c1Cl` [Example 51, (S)-1-(6-((2-amino-3-chloropyridin-4-yl)thio)pyrido[2,3-b]pyrazin-2-yl)azepan-4-amine], it took 0.065 µM to reach half-maximal inhibition (IC50).

On to `COCC1(N)CCN(c2cnc3nc(Sc4ccnc(N)c4Cl)ccc3n2)CC1` [Example 53, 4-((2-(4-amino-4-(methoxymethyl)piperidin-1-yl)pyrido[2,3-b]pyrazin-6-yl)thio)-3-chloropyridin-2-amine], for which the IC50 was determined as 0.123 µM.

For the compound `Nc1nccc(Sc2ccc3nc(N4CCC5(CC4)CNC5)cnc3n2)c1Cl` [Example 54, 4-((2-(2,7-diazaspiro[3.5]nonan-7-yl)pyrido[2,3-b]pyrazin-6-yl)thio)-3-chloropyridin-2-amine], the IC50 worked out at 0.06 µM.

Still in this test, the particulars now being: full-length SHP2 with 1 μM activating peptide, 50 μM DiFMUP; single assay or mean of multiple assays; read-out: Biological Example 1 IC50.
With `CNC1(C)CCN(c2cnc3nc(Sc4ccnc(N)c4Cl)ccc3n2)CC1` [Example 31, 3-chloro-4-((2-(4-methyl-4-(methylamino)piperidin-1-yl)pyrido[2,3-b]pyrazin-6-yl)thio)pyridin-2-amine], the IC50 was found to be 0.1 µM.

`CC1(N)CCN(c2cnc3nc(Sc4cccc(C#N)c4Cl)ccc3n2)CC1` [Example 35, 3-((2-(4-amino-4-methylpiperidin-1-yl)pyrido[2,3-b]pyrazin-6-yl)thio)-2-chlorobenzonitrile]: the IC50 is 0.27 µM.

For the compound `CC1(N)CCN(c2cnc3nc(Sc4cccn5nccc45)ccc3n2)CC1` [Example 36, 4-methyl-1-(6-(pyrazolo[1,5-a]pyridin-4-ylthio)pyrido[2,3-b]pyrazin-2-yl)piperidin-4-amine], the IC50 stood at 0.4 µM.

For `CC1(N)CCN(c2cnc3nc(-c4cccc5ccccc45)ccc3n2)CC1` [Example 38, 4-methyl-1-(6-(naphthalen-1-yl)pyrido[2,3-b]pyrazin-2-yl)piperidin-4-amine], the IC50 was found to be 0.29 µM.

As for `Nc1nccc(Sc2ccc3nc(N4[C@H]5CC[C@H]4CC(N)C5)cnc3n2)c1Cl` (stereo partly drawn) [Example 52, (1R,3s,5S)-8-(6-((2-amino-3-chloropyridin-4-yl)thio)pyrido[2,3-b]pyrazin-2-yl)-8-azabicyclo[3.2.1]octan-3-amine], the IC50 worked out at 0.07 µM.
